Assay results taken from patent publication US9970848B2, “Method for evaluating state of horny layer and method for evaluating horny layer improvement effect of cosmetic preparation” (Shiseido Company, Ltd., priority 2013, dated 2018).

System: stratum corneum sheets obtained from the forearm flexor region
Assay: Screening of candidate cosmetics for ameliorating effect on the stratum corneum (fluorescein staining after wetting and drying)
Details: 3% aqueous solution, 1 h immersion, dried 2 hours at 0% humidity, room temperature; 0.2 w/v % uranin staining; 12 visual fields averaged
Experimental: Stratum corneum sheets obtained from the forearm flexor region using stratum corneum release tape were affixed to glass slides, and each affixed stratum corneum sheet was immersed for one hour in water (two sheets) as a control and in a 3% erythritol aqueous solution (ER) and a 3% AQUAINPOOL 1407 aqueous solution (AQ), as candidate cosmetics. Next, one of the water-wetted stratum corneum sheets was dried at 0% humidity, room temperature, while the other was dried for 2 hours at 90% humidity, room temperature. The stratum corneum sheets wetted with ER and AQ were dried for 2 hours at 0% humidity, room temperature. […] The taken image was corrected for distortion and digitized using analysis software, and the fluorescent brightness was calculated.

For `OC[C@@H](O)[C@@H](O)CO` [ER, erythritol], the “fluorescent brightness compared with the water-wetted stratum corneum sheet (dried at 0% humidity)” value was “about the same”.
